Experimental data from patent US20160304547A1, “MACROLIDE COMPOUND” (PULIKE BIOLOGICAL ENGINEERING, INC, priority 2013, published 2016).
Converted amounts (≈) assume the structure as drawn. Like-named read-outs stand apart in the source and are kept apart here.

Legend:
[1] = system: Streptococcus equines CVCC556; assay: MIC by mini broth dilution technique (in vitro susceptibility); format: cell-based
Experimental: (§1) in vitro tests of susceptibility of the compounds according to the present disclosure against bacterial strains commonly used in laboratories. In accordance with the Performance Standards for Antimicrobial Disk Susceptibility Tests: Approved Standard published by the US National Committee for Clinical Laboratory Standards, the antibactetial activities of compounds prepared according to examples 5 to 187 were tested. The MICs (minimum inhibitory concentration) of the medicaments prepared according to the examples on the following bacterial strains were measured through mini broth dilution technique. Staphylococcus aureus CVCC26003, Streptococcus equines CVCC556. Actinobacillus pleuropneumoniae CVCC262, Haemophilus parasuis, and Pasteurella multocida CVCC399, which were purchased from the Control Institute of Veterinary Bioproducts and Pharmaceuticals, China. Liquid culture medium: […] Solid culture medium: […] The strains were taken out of a regrigerator at −20° C. to be revived, and were spreaded by streaking on the solid culture medium with an inoculating loop. The inoculated culture medium was cultured at 35° C. in a constant temperature incubator for 20 h. Monoclonal antibodies were selected from a well-grown culture plate and streaked on the solid culture medium. The inoculated culture medium was cultured at 35° C. in the constant temperature incubator for 20 h. […] A 96-well plate was used, and 100 μl of DMSO was added into each of wells 2 to 11, and 200 μl of ready-prepared medicament solution was added into the 1st well, 100 μl of the medicament solution was extracted from the 1st well and added into the 2nd well. Double dilution was performed until the 11th well, thereby forming 11 gradients. In this case, compound of parent plate was prepared. 3 μl of double diluted medicament solution was extracted with a 12-channel pipettor and added into wells 1-11 of a new disposable 96-well culture plate. The 12th well thereof is a controll well. For each medicament, there are two adjacent rows which are parallel. The transferred compound plate was reserved for later use. […] The dilution ratio was recorded, and the bacterial liquid for the tests was diluted according to the recorded dilution ratio. Subsequently, the bacterial suspension and the liquid culture medium were diluted in the proportion of 1:200. The diluted solution was reserved for later use.

[2] = system: Actinobacillus pleuropneumoniae CVCC262; assay: as above; format: cell-based
Experimental: as §1

[3] = system: Pasteurella multocida CVCC399; assay: as above; format: cell-based
Experimental: as §1

Haemophilus parasuis = assay: as above; format: cell-based; settings: Glaesserella parasuis, read-out: MIC values Haemophilus parasuis
Experimental: as §1

[4] = system: Streptococcus pneumoniae CMCC 31203; assay: In vivo antibacterial test, survival of infected BALB/c mice; settings: CMCC31203, sc, 168 h, read-out: Animal survival rate
[5] = system: Staphylococcus aureus CVCC26003; assay: MIC by mini broth dilution technique (in vitro susceptibility); format: cell-based
Experimental: in vitro tests of susceptibility of the compounds according to the present disclosure against bacterial strains commonly used in laboratories. In accordance with the Performance Standards for Antimicrobial Disk Susceptibility Tests: Approved Standard published by the US National Committee for Clinical Laboratory Standards, the antibactetial activities of compounds prepared according to examples 5 to 187 were tested. The MICs (minimum inhibitory concentration) of the medicaments prepared according to the examples on the following bacterial strains were measured through mini broth dilution technique. Staphylococcus aureus CVCC26003, Streptococcus equines CVCC556. Actinobacillus pleuropneumoniae CVCC262, Haemophilus parasuis, and Pasteurella multocida CVCC399, which were purchased from the Control Institute of Veterinary Bioproducts and Pharmaceuticals, China. Liquid culture medium: CAMHB. […] Solid culture medium: NINA prepared according to the specification of the final product. The strains were taken out of a regrigerator at −20° C. to be revived, and were spreaded by streaking on the solid culture medium with an inoculating loop. The inoculated culture medium was cultured at 35° C. in a constant temperature incubator for 20 h. Monoclonal antibodies were selected from a well-grown culture plate and streaked on the solid culture medium. The inoculated culture medium was cultured at 35° C. in the constant temperature incubator for 20 h. […] A 96-well plate was used, and 100 μl of DMSO was added into each of wells 2 to 11, and 200 μl of ready-prepared medicament solution was added into the 1st well, 100 μl of the medicament solution was extracted from the 1st well and added into the 2nd well. Double dilution was performed until the 11th well, thereby forming 11 gradients. In this case, compound of parent plate was prepared. 3 μl of double diluted medicament solution was extracted with a 12-channel pipettor and added into wells 1-11 of a new disposable 96-well culture plate. The 12th well thereof is a controll well. For each medicament, there are two adjacent rows which are parallel. The transferred compound plate was reserved for later use. […] The dilution ratio was recorded, and the bacterial liquid for the tests was diluted according to the recorded dilution ratio. Subsequently, the bacterial suspension and the liquid culture medium were diluted in the proportion of 1:200. The diluted solution was reserved for later use.

[6] = Streptococcus equines CVCC556, broth dilution, read-out: MIC values Streptococcus equines CVCC556
[7] = Actinobacillus pleuropneumoniae CVCC262, broth dilution, read-out: MIC values Actinobacillus pleuropneumoniae CVCC262
[8] = Pasteurella multocida CVCC399, broth dilution, read-out: MIC values Pasteurella multocida CVCC399
[9] = Haemophilus parasuis, broth dilution
[10] = BALB/c mice infected i.p. with Streptococcus pneumoniae, 5 mg per kg s.c. via neck for 3 consecutive days, deaths recorded until the seventh day
[11] = Staphylococcus aureus CVCC26003, broth dilution, read-out: MIC values Staphylococcus aureus CVCC26003

Compound	MIC [1, 6]	MIC [2, 7]	MIC [3, 8]	MIC (Haemophilus parasuis; [9])	responders at 5 mg/kg [4, 10]	MIC [5, 11]	MIC ([1]; Streptococcus, CVCC556, read-out: MIC values Streptococcus equines CVCC556)	MIC ([2]; Actinobacillus pleuropneumoniae, CVCC262, read-out: MIC values Actinobacillus pleuropneumoniae CVCC262)	MIC ([3]; Pasteurella multocida, CVCC399, read-out: MIC values Pasteurella multocida CVCC399)	MIC (Haemophilus parasuis)	responders at 5 mg/kg ([4]; Streptococcus pneumoniae)	MIC ([5]; Staphylococcus aureus, CVCC26003, read-out: MIC values Staphylococcus aureus CVCC26003)
CC[C@@H]1OC(=O)[C@H](C)[C@H](OC2C[C@@](C)(OC)[C@](O)(CNC(C)(C)C)[C@H](C)O2)[C@@H](C)[C@@H](O[C@@H]2O[C@H](C)C[C@H](N(C)C)[C@H]2O)[C@](C)(O)C[C@@H](C)NC[C@@H](C)[C@H](O)[C@]1(C)O (stereo partly drawn) [syzx-14]	≤ 0.25 µg/mL	0.5 µg/mL (≈ 0.61 µM)	0.25 µg/mL (≈ 0.305 µM)	≤ 0.25 µg/mL	70%	≤ 0.25 µg/mL						
CC[C@@H]1OC(=O)[C@H](C)[C@H](OC2C[C@@](C)(OC)[C@](O)(CN3CCCCC3)[C@H](C)O2)[C@@H](C)[C@@H](O[C@@H]2O[C@H](C)C[C@H](N(C)C)[C@H]2O)[C@](C)(O)C[C@@H](C)NC[C@@H](C)[C@H](O)[C@]1(C)O (stereo partly drawn) [syzx-15, (2R,3S,4R,5S,8R,10R,11R,12S,13S,14R)-13-[(2,6-dideoxy-3-C-methyl-3-O-methyl-4-C-[piperidinylmethyl]-α-L-ribopyranosyl)oxy]-2-ethyl-3,4,10-trihydroxy-3,5,8,10,12,14-hexamethyl-11-[[3,4,6-trideoxy-3-(dimethylamino)-β-D-xylo-hexopyranosy]oxy]-1-oxa-7-azacyclopentadecan-15-one]	≤ 0.25 µg/mL	0.5 µg/mL (≈ 0.601 µM)	≤ 0.25 µg/mL	≤ 0.25 µg/mL	70%	≤ 0.25 µg/mL						
CC[C@@H]1OC(=O)[C@H](C)[C@H](OC2C[C@@](C)(OC)[C@](O)(CNCC3CC3)[C@H](C)O2)[C@@H](C)[C@@H](O[C@@H]2O[C@H](C)C[C@H](N(C)C)[C@H]2O)[C@](C)(O)C[C@@H](C)NC[C@@H](C)[C@H](O)[C@]1(C)O (stereo partly drawn) [syzx-17, (2R,3S,4R,5S,8R,10R,11R,12S,13S,14R)-13-[(2,6-dideoxy-3-C-methyl-3-O-methyl-4-C-[(cyclopropylmethylamino)methyl]-α-L-ribopyranosyl)oxy]-2-ethyl-3,4,10-trihydroxy-3,5,8,10,12,14-hexamethyl-11-[[3,4,6-trideoxy-3-(dimethylamino)-β-D-xylo-hexopyranosy]oxy]-1-oxa-7-azacyclopentadecan-15-one]	≤ 0.25 µg/mL	2 µg/mL (≈ 2.44 µM)	0.25 µg/mL (≈ 0.306 µM)	≤ 0.25 µg/mL	70%	≤ 0.25 µg/mL						
CC[C@@H]1OC(=O)[C@H](C)[C@H](OC2C[C@@](C)(OC)[C@](O)(CNC3CCCC3)[C@H](C)O2)[C@@H](C)[C@@H](O[C@@H]2O[C@H](C)C[C@H](N(C)C)[C@H]2O)[C@](C)(O)C[C@@H](C)NC[C@@H](C)[C@H](O)[C@]1(C)O (stereo partly drawn) [syzx-30, (2R,3S,4R,5S,8R,10R,11R,12S,13S,14R)-13-[(2,6-dideoxy-3-C-methyl-3-O-methyl-4-C-[(cyclopentylamino)-methyl]-α-L-ribopyranosyl)oxy]-2-ethyl-3,4,10-trihydroxy-3,5,8,10,12,14-hexamethyl-11-[[3,4,6-trideoxy-3-(dimethylamino)-β-D-xylo-hexopyranosy]oxy]-1-oxa-7-azacyclopentadecan-15-one]	≤ 0.25 µg/mL	0.5 µg/mL (≈ 0.601 µM)	≤ 0.25 µg/mL	0.5 µg/mL (≈ 0.601 µM)	80%	≤ 0.25 µg/mL						
CC[C@@H]1OC(=O)[C@H](C)[C@H](OC2C[C@@](C)(OC)[C@](O)(CNCc3cccc(OC)c3)[C@H](C)O2)[C@@H](C)[C@@H](O[C@@H]2O[C@H](C)C[C@H](N(C)C)[C@H]2O)[C@](C)(O)C[C@@H](C)NC[C@@H](C)[C@H](O)[C@]1(C)O (stereo partly drawn) [syzx-35, (2R,3S,4R,5S,8R,10R,11R,12S,13S,14R)-13-[(2,6-dideoxy-3-C-methyl-3-O-methyl-4-C-[[3-methoxybenzyl-amino]-methyl]-α-L-ribopyranosyl)oxy]-2-ethyl-3,4,10-trihydroxy-3,5,8,10,12,14-hexamethyl-11-[[3,4,6-trideoxy-3-(dimethylamino)-β-D-xylo-hexopyranosy]oxy]-1-oxa-7-azacyclopentadecan-15-one]							0.5 µg/mL (≈ 0.566 µM)	0.25 µg/mL (≈ 0.283 µM)	1 µg/mL (≈ 1.13 µM)	0.25 µg/mL (≈ 0.283 µM)	70%	0.25 µg/mL (≈ 0.283 µM)
CCCCCNC[C@]1(O)[C@H](C)OC(O[C@@H]2[C@@H](C)[C@@H](O[C@@H]3O[C@H](C)C[C@H](N(C)C)[C@H]3O)[C@](C)(O)C[C@@H](C)NC[C@@H](C)[C@H](O)[C@](C)(O)[C@H](CC)OC(=O)[C@@H]2C)C[C@@]1(C)OC (stereo partly drawn) [syzx-47, (2R,3S,4R,5S,8R,10R,11R,12S,13S,14R)-13-[(2,6-dideoxy-3-C-methyl-3-O-methyl-4-C-[[n-pentyl-amino]-methyl]-α-L-ribopyranosyl)oxy]-2-ethyl-3,4,10-trihydroxy-3,5,8,10,12,14-hexamethyl-11-[[3,4,6-trideoxy-3-(dimethylamino)-β-D-xylo-hexopyranosy]oxy]-1-oxa-7-azacyclopentadecan-15-one]	≤ 0.25 µg/mL	0.5 µg/mL (≈ 0.599 µM)	≤ 0.25 µg/mL	0.5 µg/mL (≈ 0.599 µM)	90%	1 µg/mL (≈ 1.2 µM)						
CC[C@@H]1OC(=O)[C@H](C)[C@H](OC2C[C@@](C)(OC)[C@](O)(CNCc3cnc(C)cn3)[C@H](C)O2)[C@@H](C)[C@@H](O[C@@H]2O[C@H](C)C[C@H](N(C)C)[C@H]2O)[C@](C)(O)C[C@@H](C)NC[C@@H](C)[C@H](O)[C@]1(C)O (stereo partly drawn) [syzx-65]	≤ 0.25 µg/mL	32 µg/mL (≈ 36.8 µM)	1 µg/mL (≈ 1.15 µM)	≤ 0.25 µg/mL	90%	≤ 0.25 µg/mL						
CC[C@@H]1OC(=O)[C@H](C)[C@H](OC2C[C@@](C)(OC)[C@](O)(CNCCCOC)[C@H](C)O2)[C@@H](C)[C@@H](O[C@@H]2O[C@H](C)C[C@H](N(C)C)[C@H]2O)[C@](C)(O)C[C@@H](C)NC[C@@H](C)[C@H](O)[C@]1(C)O (stereo partly drawn) [syzx-66]	0.5 µg/mL (≈ 0.598 µM)	8 µg/mL (≈ 9.57 µM)	≤ 0.25 µg/mL	≤ 0.25 µg/mL	80%	1 µg/mL (≈ 1.2 µM)						
